Experimental data published in PMC7354631 (Toxins, 2020).
Like-named read-outs stand apart in the source and are kept apart here. Marks after values point to notes of the source that are not given here.

How the values were obtained:
[1] = biological target: T1, human serum albumin (HSA) (Homo sapiens, UniProt P02768); assay: biochemical; format: binding
[2] = biological target: T1, human serum albumin (HSA); format: binding
[3] = biological target: Sudlow’s site I of human serum albumin (HSA) (Homo sapiens, UniProt P02768); format: binding; settings: for warfarin concentration in the filtrate (displacement from site I): pH 7.4
Sequence of Sudlow’s site I of human serum albumin (HSA) (P02768 25-609): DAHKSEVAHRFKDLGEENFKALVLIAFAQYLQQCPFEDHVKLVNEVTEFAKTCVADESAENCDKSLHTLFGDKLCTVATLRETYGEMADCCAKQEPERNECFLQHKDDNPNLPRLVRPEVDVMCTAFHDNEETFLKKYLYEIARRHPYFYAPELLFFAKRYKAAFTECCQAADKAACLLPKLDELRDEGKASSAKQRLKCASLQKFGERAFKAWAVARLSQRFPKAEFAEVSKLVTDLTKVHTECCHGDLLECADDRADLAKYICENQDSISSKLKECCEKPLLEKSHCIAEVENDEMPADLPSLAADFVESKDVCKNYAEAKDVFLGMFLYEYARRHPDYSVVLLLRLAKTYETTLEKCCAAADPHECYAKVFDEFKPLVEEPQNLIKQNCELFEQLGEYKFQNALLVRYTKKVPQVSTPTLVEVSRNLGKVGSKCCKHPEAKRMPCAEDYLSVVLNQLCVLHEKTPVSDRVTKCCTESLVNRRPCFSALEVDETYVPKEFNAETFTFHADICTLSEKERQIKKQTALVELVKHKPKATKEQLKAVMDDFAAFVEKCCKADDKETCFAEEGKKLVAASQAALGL

[4] = test system: HepG2 cells
[5] = biological target: T1, human serum albumin (HSA); settings: cited from earlier work
[6] = test system: bovine serum albumin; settings: cited from earlier work
[7] = test system: Sudlow’s site II of human serum albumin (HSA); settings: cited from earlier work
[8] = biological target: T1, human serum albumin (HSA); assay: biochemical; format: binding; remark: listed apart in the source
[9] = biological target: T1, human serum albumin (HSA); format: binding; remark: listed apart in the source
[10] = Ka (±SEM) (Hyperquad, Figure 3)
[11] = association constant of ochratoxin–HSA complex (approximate, summary)

T1 sequence (P02768 25-609): as above

O=C1C=C2C(=CCOC2O)O1 (centres unmarked) [PAT, Patulin]
Kd [1]: 72500 nM | effect on the fluorescence emission of HSA [1]: slightly decreased | KSV (Stern–Volmer quenching constant) ([1]; pH 7.4): 8.23 × 10^3 (±1.12 × 10^3) L/mol | induced CD features on HSA binding [2]: no induced CD features were observed | UV spectral changes in the presence of HSA ([2]; pH 7.4): some UV spectral changes could be noticed | warfarin concentration in the filtrate (displacement from site I) [3]: did not alter | effect of 10% FBS on the mycotoxin-induced viability loss / toxic effect [4]: did not affect | effect of 40 g/L HSA on the toxic effect of the mycotoxin [4]: did not affect | KSV of the complex with HSA [5]: 14000 L/mol | interaction with bovine serum albumin [6]: weak interaction

CC1=C[C@H]2O[C@@H]3[C@H](O)C[C@](C)([C@@]2(CO)[C@H](O)C1=O)[C@]31CO1 [DON, Deoxynivalenol]
effect on the fluorescence emission of HSA [1]: did not modify | spectral position of the n–π* CD band in protein-free buffer vs. high molar excess of HSA ([2]; pH 7.4): practically the same | warfarin concentration in the filtrate (displacement from site I) [3]: did not alter | effect of 10% FBS on the mycotoxin-induced viability loss / toxic effect [4]: did not affect | effect of 40 g/L HSA on the toxic effect of the mycotoxin [4]: did not affect | association constant of the complex with HSA [5]: ~46000 L/mol | quenching effect on HSA [5]: strong quenching effect

C[C@H]1CCCC(=O)CCC/C=C/c2cc(O)cc(O)c2C(=O)O1 [zearalenone, reference compound]
Ka of the complex with HSA [5]: 120000 L/mol

O=c1cc(-c2ccccc2)oc2cc(OS(=O)(=O)O)cc(O)c12 [chrysin-7-sulfate]
displacement of naproxen from HSA [7]: statistically significant displacement

CCOC(=O)[C@H](Cc1ccccc1)NC(=O)c1cc(Cl)c2c(c1O)C(=O)O[C@H](C)C2 [OTC, ochratoxin C]
effect on the emission signal of HSA at 340 nm [1]: decreased | KSV (±SEM) (Stern–Volmer Plot, Figure 2) ([1]; pH 7.4): 0.46 ± 0.06 ×10^6 L/mol | HSA concentration enough to achieve complete albumin binding [8]: 2 to 3 µM | emission signal of the ochratoxin with elevation of HSA concentration [8]: significantly increased | Kd [8, 10]: 62.4 nM | Kd [8, 11]: ~100 nM | fluorescence anisotropy in the presence of HSA [9]: strongly increased | location of the high-affinity binding site on HSA [3]: subdomain IIA | warfarin concentration in the filtrate (displacement from site I) [3]: significantly increased | effect of 10% FBS on the mycotoxin-induced viability loss / toxic effect [4]: abolished | effect of the mycotoxin on cellular ATP levels in the presence of 40 g/L HSA [4]: did not affect

CC1=C2C(=CO[C@H](C)[C@H]2C)C(O)=C(C(=O)O)C1=O [citrinin, reference compound]
Ka of the complex with HSA [5]: 200000 L/mol

Cc1cc(O)cc2oc(=O)c3c(O)cc(O)cc3c12 [alternariol, reference compound]
Ka of the complex with HSA [5]: 400000 L/mol

O=c1cc(-c2ccccc2)oc2cc(O)cc(O)c12 [chrysin]
displacement of naproxen from HSA [7]: statistically significant displacement

CC(=O)OC[C@]12C[C@H](OC(=O)CC(C)C)C(C)=C[C@H]1O[C@@H]1[C@H](O)[C@@H](OC(C)=O)[C@@]2(C)[C@]12CO2 [T2, T-2 toxin]
effect on the fluorescence emission of HSA [1]: did not modify | difference of far-UV CD curves of free HSA and HSA+toxin (secondary structure) [2]: no significant difference | modification of the near-UV CD spectrum of HSA (245–340 nm) [2]: unambiguous and relevant spectral modifications could not be registered | warfarin concentration in the filtrate (displacement from site I) [3]: did not alter | effect of 10% FBS on the mycotoxin-induced viability loss / toxic effect [4]: did not affect | effect of 40 g/L HSA on the toxic effect of the mycotoxin [4]: did not affect | relative cytotoxicity [4]: considerably higher compared to PAT or DON

C[C@@H]1Cc2ccc(C(=O)N[C@@H](Cc3ccccc3)C(=O)O)c(O)c2C(=O)O1 [OTB, ochratoxin B]
effect on the emission signal of HSA at 340 nm [1]: decreased | KSV (±SEM) (Stern–Volmer Plot, Figure 2) ([1]; pH 7.4): 0.57 ± 0.05 ×10^6 L/mol | HSA concentration enough to achieve complete albumin binding [8]: 5 to 7 µM | emission signal of the ochratoxin with elevation of HSA concentration [8]: significantly increased | Kd [8, 10]: 725 nM | Kd [8, 11]: ~1000 nM | fluorescence anisotropy in the presence of HSA [9]: strongly increased | location of the high-affinity binding site on HSA [3]: subdomain IIA | warfarin concentration in the filtrate (displacement from site I) [3]: significantly increased | effect of 10% FBS on the mycotoxin-induced viability loss / toxic effect [4]: significantly reduced | effect of the mycotoxin on cellular ATP levels in the presence of 40 g/L HSA [4]: did not affect | relative cytotoxicity [4]: considerably lower toxicity than OTC

O=c1cc(-c2ccccc2)oc2c(O)c(O)ccc12 [7,8-dihydroxyflavone]
displacement of naproxen from HSA [7]: statistically significant displacement
